Laboratory results reported in patent US20120329731A1 (priority 2006, published 2012).
Where two headings read alike, the source gives them in different places.

Key:
[1] = tested on: cyanide poisoning; set-up: species or system mice; settings: mouse, in vivo
[2] = tested on: righting reflex; settings: mouse, in vivo, ip

SMILES	% S (percent survivors) [1] [%]	P.I. (protective index) [1]	Screen Righting time (Ave ± SE) [1] [min]	% S (percent survivors) ([1]; po) [%]	Screen Righting time (Ave ± SE) [2] [s]	P.I. (protective index: recovery time CN-treated / recovery time PD-treated) [1]	Protective Indices compared with the combination of nitrite and thiosulfate ([1]; ip)	antidotal activity when administered by the oral route ([1]; po)
N[C@@H](CCC(=O)N[C@@H](CSSC[C@H](N)C(=O)O)C(=O)NCC(=O)O)C(=O)O [CySSG, reference compound]	100	2.5	27.7 ± 2.7	100	8.8 ± 2.2			
O.O.O.O.O=C(O)C1(O)CSC(O)(C(=O)O)CS1.[Na].[Na] (stereo not shown) [13 (X = Na), Disodium 2,5-dihydroxy-1,4-dithiane-2,5-dicarboxylic acid tetrahydrate]	100	4.0	17.0 ± 3.3	100	14.0 ± 2.3			
C/C1=C2/[N-][C@H]([C@H](CC(N)=O)[C@@]2(C)CCC(=O)NC[C@@H](C)OP(=O)([O-])O[C@H]2[C@@H](O)[C@@H](n3cnc4cc(C)c(C)cc43)O[C@@H]2CO)[C@]2(C)N=C(/C(C)=C3N=C(/C=C4N=C1[C@@H](CCC(N)=O)C\4(C)C)[C@@H](CCC(N)=O)[C@]\3(C)CC(N)=O)[C@@H](CCC(N)=O)[C@]2(C)CC(N)=O.[Co+3].[OH-] [H, Hydroxocobalamin, reference compound]	100				7.1 ± 0.6	5.2		
CCOC(=O)C1(O)CSC(O)(C(=O)OCC)CS1 (stereo not shown) [PD 2, 2,5-Dihydroxy-2,5-dicarbethoxy-1,4-dithiane]	100			100	21.2 ± 1.2	7.6	generally superior	retain their antidotal activity
